Source: patent publication US20210261594A1, “USE OF AVERMECTIN DERIVATIVE FOR INCREASING BIOAVAILABILITY AND EFFICACY OF MACROCYLIC LACTONES” (INSTITUT NATIONAL DE RECHERCHE POUR L'AGRICULTURE, …, priority 2011, published 2021)
Like-named read-outs stand apart in the source and are kept apart here. Values belong to the compound of their own block, whether it stands above or below them. *1 amine or outer side, *2 acyl side, *3 side chain or, on linkers, in order; H or OH if unused. Where a SMILES comes first, the peptide text is derived from it. Bridges are numbered along the chain shown (N, C = ends). Roman numbers before positions name the chains, in order. [ ]: non-standard residue; d: D form. Actinocin(9to1) = Cc1c2oc3c(C)ccc(C(=O)[*:1])c3nc-2c(C(=O)[*:2])c(N)c1=O; NMeV = CN[C@H](C(=O)O)C(C)C; Sar = CNCC(=O)O

Tests used:
[1] = test system: multidrug resistant cells DC-3F/ADX; test: Reversal of actinomycin D resistance in DC-3F/ADX cells, MTT test; type: cell-based, Chinese hamster; conditions: for RF (IC50 for toxic drug alone/IC50 for toxic drug in the presence of compound): ActD; for RF (IC50 for toxic drug alone/IC50 for toxic drug in the presence of compound) / toxicity of actinomycin D when combined with the compound: compound at 5 μM
Text: (§1) Multidrug resistant tumor cells used in the present invention were Human lymphoma parental CEM and vinblastine-resistant CEM/VLB (Zordan-Nudpo et al., 1993) and parental […] and multidrug resistant cells DC-3F/ADX selected from spontaneously transformed DC-3F Chinese hamster lung fibroblasts on the basis of their resistance to actinomycin D (Biedler and Riehm, 1970). Both types of resistant cells overexpressed Pgp.
(§2) CEM/VLB cells and DC-3F/ADX cells described in aforementioned part 1.3 were plated into 96 well plates and allowed to grow for 24 h. They were then incubated 4 days with vinblastine (concentration range 0-1 μM) with or without IVM at 2.5 μM or ivermectin aglycone (IVM-Agly) at 2.5 and at 5 μM (FIG. 7); or 2 days with actinomycin D with actinomycin (concentration range 0.01-10 μM) with or without ivermectin (IVM) or ivermectin aglycone (IVM-Agly) at 5 μM (FIG. 8). Cytotoxicity was determined using the MTT test. IC50 values were graphically determined and they represent the concentration needed for half cell survival. Fold reversal of multidrug resistance called reversion factors were the ratio of IC50 for toxic drug alone/IC50 for toxic drug in the presence of IVM-Agly.

[2] = target: T1, rat GABA(A) receptor (α1, β2 and γ2 subunits) (Rattus norvegicus, UniProt P18508+P62813+P63138); test: GABA receptor affinity test, two-electrode voltage clamp in Xenopus oocytes; type: cell-based; conditions: for EC50: co-application with 2 μM GABA (EC10), Xenopus oocytes, read-out: EC50: concentration needed to induce half of the maximal potentiation of GABA effect; for agonist strength at GABA receptors, in words: compared to ivermectin
T1 construct: expressed in transfected cells; host or cells: Xenopus laevis oocytes injected with RNA
T1 sequence (P62813 28-455): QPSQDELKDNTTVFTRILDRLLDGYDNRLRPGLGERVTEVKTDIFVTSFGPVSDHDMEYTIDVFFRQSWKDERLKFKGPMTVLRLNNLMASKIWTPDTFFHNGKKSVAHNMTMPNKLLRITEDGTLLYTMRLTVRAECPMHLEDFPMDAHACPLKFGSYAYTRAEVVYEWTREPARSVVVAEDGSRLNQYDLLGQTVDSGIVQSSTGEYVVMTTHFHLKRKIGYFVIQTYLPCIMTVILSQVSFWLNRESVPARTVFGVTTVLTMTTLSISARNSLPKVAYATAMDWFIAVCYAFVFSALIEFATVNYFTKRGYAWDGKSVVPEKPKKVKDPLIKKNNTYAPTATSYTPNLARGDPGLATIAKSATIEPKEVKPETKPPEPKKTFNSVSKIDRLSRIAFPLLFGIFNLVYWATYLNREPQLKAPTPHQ
T1 sequence (P63138 25-474 limits assumed): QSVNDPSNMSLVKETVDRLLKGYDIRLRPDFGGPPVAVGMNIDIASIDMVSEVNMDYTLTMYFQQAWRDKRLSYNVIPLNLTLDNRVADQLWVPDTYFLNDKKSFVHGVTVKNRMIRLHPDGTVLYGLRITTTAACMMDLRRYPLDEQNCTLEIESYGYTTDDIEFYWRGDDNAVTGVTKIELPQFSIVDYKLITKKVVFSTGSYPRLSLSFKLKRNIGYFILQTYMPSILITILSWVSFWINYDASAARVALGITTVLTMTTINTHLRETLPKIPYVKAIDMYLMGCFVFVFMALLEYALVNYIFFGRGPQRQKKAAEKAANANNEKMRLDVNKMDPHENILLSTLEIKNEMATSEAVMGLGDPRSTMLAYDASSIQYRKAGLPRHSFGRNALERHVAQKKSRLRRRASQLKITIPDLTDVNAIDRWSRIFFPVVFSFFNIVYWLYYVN
T1 sequence (P18508 39-466): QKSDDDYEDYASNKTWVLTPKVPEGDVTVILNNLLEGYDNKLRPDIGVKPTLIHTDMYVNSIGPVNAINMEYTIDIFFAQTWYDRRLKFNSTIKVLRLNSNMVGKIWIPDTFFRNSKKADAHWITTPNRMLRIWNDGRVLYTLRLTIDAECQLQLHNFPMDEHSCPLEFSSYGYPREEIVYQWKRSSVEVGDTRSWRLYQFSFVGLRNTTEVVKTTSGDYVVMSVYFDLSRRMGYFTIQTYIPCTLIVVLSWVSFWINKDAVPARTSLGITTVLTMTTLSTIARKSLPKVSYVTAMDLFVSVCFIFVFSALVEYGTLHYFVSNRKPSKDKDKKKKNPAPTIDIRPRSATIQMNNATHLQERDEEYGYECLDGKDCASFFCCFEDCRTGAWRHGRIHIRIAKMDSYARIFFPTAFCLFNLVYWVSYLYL
Protocol: The ability of ivermectin or moxidectin or ivermectin aglycone or ivermectin monosaccharide to interact with GABA receptors is assayed by electrophysiology measurements. Xenopus laevis oocytes are injected with 46 nl of RNA solution, with RNA coding for α1, β2 and γ2 subunits of the GABA channel at a ratio of 10:10:50 nM. The injected oocytes are incubated in modified Barth's solution [90 mM NaCl, 3 mM KCl, 0.82 mM MgSO4, 0.41 mM CaCl2, 0.34 mM Ca(NO3)2, 100 U/ml penicillin, 100 μg/ml streptomycin and 100 μg/ml kanamycin, 5 mM HEPES pH 7.6] at 18° C. for approximately 36 h before the measurements to ensure the expression of a functional receptor.
Electrophysiological experiments are performed by the two-electrode voltage-clamp method. Measurements were done in ND96 medium containing 96 mM NaCl, 2 mM KCl, 1 mM […], 1.8 mM CaCl2 and 5 mM HEPES, pH 7.5, at a holding potential of −80 mV. The control current is evoked by the application of 2 μM GABA and the normalized relative potentiation of 2 μM GABA-evoked currents by increasing concentration of ivermectin, moxidectin, ivermectin aglycone, or ivermectin monosaccharide is determined as:
[(IMLs+2 μM GABA/I2 μM GABA alone)/(I(MLs+2 μM GABA)Max/I2 μM GABA alone)]×100%
where I2 μM GABA is the control current evoked by 2 μM GABA, IMLs+2 μM GABA is the current evoked by each drug concentration in co-applications with 2 μM GABA, and I(MLs+2 μM GABA)Max is the maximal current evoked by co-applications of drugs and 2 μM GABA. A washout period of 4 min between each GABA application is introduced, allowing receptors to recover from desensitization. Three different batches of oocytes are used to collect data for each analysis. The perfusion system is cleaned between two experiments by washing with 10% DMSO after application of MLs derivatives to avoid contamination.

[3] = test system: vinblastine-resistant CEM/VBL cells; test: Reversal of vinblastine resistance in CEM/VBL cells, MTT test; type: cell-based, Human; conditions: 1 μM vinblastine
Text: as §1, §2

[4] = test system: Human lymphoma parental CEM cells; test: Vinblastine cytotoxicity in parental CEM cells, MTT test; type: cell-based; conditions: at concentrations below 0.001 μM
Text: as §1, §2

murine Pgp (mdr1a) = target: T2, murine Pgp (mdr1a) (Mus musculus, UniProt P21447); test: Rhodamine 123 transport test in LLC-PK1-mdr1a cells overexpressing murine Pgp; type: cell-based; conditions: LLCPK1-mdr1a cells; for Cmax: concentration to obtain maximum inhibitory effect / Emax: maximum effect compared to maximum effect obtained with 5 μM of valspodar: rhodamine 123
T2 construct: expressed in transfected cells; host or cells: LLC-PK1 pig kidney epithelial cells (LLC-PK1-mdr1a), available in the INRA laboratory
T2 sequence (P21447 whole entry): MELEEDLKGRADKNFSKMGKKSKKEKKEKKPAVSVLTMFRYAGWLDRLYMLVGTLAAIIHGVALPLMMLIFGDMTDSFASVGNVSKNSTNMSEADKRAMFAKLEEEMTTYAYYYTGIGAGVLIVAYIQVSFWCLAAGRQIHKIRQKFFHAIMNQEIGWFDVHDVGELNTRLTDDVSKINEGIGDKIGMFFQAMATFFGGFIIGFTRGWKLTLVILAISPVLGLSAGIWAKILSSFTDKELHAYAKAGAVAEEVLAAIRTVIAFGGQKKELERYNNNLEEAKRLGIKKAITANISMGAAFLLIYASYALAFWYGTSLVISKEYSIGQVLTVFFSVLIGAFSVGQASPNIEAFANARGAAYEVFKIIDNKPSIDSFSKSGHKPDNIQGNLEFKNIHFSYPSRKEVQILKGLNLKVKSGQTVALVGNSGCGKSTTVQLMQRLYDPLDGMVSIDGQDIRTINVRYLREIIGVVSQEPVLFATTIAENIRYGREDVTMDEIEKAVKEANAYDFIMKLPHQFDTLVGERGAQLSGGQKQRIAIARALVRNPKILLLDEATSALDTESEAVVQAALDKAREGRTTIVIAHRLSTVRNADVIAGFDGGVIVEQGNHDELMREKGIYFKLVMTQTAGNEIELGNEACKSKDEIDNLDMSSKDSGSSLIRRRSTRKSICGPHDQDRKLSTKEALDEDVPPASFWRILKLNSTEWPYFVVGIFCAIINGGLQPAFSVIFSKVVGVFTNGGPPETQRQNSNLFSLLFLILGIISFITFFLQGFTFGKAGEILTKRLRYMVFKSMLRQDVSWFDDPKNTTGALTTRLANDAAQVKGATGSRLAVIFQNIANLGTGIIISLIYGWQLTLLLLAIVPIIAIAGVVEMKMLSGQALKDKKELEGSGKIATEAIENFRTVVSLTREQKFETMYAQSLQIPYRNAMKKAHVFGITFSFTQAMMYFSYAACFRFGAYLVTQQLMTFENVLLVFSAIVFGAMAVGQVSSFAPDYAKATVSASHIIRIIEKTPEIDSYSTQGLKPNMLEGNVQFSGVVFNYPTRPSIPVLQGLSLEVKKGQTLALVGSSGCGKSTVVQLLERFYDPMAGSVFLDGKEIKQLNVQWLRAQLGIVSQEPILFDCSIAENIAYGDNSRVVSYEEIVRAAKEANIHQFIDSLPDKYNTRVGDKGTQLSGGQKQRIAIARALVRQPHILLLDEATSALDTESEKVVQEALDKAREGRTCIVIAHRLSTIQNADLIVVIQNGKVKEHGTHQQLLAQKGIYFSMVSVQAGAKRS
Protocol: (§3) The cells used were LLC-PK1, pig kidney epithelial cell lines, and LLC-PK1-mdr1a which are recombinant LLC-PK1 cells overexpressing murine abcb1a gene. All cell lines are available in INRA laboratory. The transfected cell line LLC-PK1-HcPgpA, which overexpress nematode Haemonchus contortus PgpA, was developed by R. Prichard (McGill University). Cells were cultured in medium 199 supplemented with penicillin (100 units/ml), streptomycin ([…]), 10% of foetal calf serum and geneticin G418 (400 mg/1) as selecting compound for the LLC-PKI-mdr1a and LLC-PK1-HcPgpA cells. All compounds and medium are from Invitrogen, Cergy Pontoise, France. Cells were seeded on 24-well plates (Sarstedt, Orsay, France) at 2×10^5 cells/well in G418-free medium until confluence for transport activity and on 96-well plates for viability assay.
(§4) Cells were cultured with rhodamine 123 (10 μM, purchased from Sigma) with or without valspodar (VSP, […]). Compounds of interest were dissolved in DMSO and diluted in the medium (final DMSO concentration=0.1%) in a concentration range of 0.1-50 μM. After the 2-h incubation period, the cells were lysed and lysates were stored at −20° C. until analysis. To study the Pgp transport activity, the intracellular accumulation of fluorescent Rho 123 was determined by reading fluorescence in the cell lysates with a spectrofluorimeter (PerkinElmer LS50B, max excitation=507 nm; max emission=529 nm). Protein concentration was determined in lysates with BCA kit using bovine serum albumin as protein standard (Thermo scientific) Results were expressed as fluorescence arbitrary units after normalization to cellular protein content per well.

[5] = target: nematode Haemonchus contortus PgpA (HcPgpA) (Haemonchus contortus, UniProt O61301); test: Rhodamine 123 transport test in LLC-PK1-HcPgpA cells overexpressing nematode Pgp; type: cell-based; conditions: for EC50: LLC-PK1-HcPgpA cells, read-out: EC50, concentration of half inhibitory effect, Nematode PgpA
nematode Haemonchus contortus PgpA (HcPgpA), sequence (O61301 entry or part of it): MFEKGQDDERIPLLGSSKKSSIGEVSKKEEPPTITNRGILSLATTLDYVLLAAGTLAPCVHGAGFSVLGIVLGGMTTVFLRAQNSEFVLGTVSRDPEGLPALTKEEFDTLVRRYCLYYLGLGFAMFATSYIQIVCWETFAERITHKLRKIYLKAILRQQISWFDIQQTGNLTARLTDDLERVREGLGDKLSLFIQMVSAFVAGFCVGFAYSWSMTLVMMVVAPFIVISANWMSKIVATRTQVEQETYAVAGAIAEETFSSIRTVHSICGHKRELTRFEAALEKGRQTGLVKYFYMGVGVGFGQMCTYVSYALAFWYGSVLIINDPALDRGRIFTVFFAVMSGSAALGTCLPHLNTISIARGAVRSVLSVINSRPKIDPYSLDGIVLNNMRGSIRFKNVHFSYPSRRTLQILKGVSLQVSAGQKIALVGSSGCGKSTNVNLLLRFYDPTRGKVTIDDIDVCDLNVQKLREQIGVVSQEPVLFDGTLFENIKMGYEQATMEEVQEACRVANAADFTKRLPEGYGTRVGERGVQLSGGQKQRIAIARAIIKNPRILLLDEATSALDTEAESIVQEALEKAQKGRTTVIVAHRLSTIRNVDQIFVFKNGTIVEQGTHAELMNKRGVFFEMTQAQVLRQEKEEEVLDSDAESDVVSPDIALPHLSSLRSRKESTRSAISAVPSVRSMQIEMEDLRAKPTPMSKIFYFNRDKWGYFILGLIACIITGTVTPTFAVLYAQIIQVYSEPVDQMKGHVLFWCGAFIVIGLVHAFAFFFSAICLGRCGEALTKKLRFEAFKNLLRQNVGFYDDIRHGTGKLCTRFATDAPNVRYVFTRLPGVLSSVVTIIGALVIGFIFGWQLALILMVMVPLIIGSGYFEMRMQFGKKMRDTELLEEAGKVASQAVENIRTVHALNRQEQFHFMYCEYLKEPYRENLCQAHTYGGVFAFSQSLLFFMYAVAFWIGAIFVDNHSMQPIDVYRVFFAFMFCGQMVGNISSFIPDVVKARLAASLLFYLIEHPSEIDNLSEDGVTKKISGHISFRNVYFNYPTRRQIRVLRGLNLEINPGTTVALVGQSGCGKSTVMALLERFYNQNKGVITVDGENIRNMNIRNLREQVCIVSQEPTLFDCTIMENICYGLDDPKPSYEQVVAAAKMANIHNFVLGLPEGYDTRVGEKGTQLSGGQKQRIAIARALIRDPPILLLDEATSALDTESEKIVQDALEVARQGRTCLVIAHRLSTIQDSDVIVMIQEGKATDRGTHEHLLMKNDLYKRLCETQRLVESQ
Protocol: as §3, §4

[6] = test system: Caenorhabditis elegans resistant to ivermectin (IVR10); test: Ivermectin resistance gravid assay in Caenorhabditis elegans IVR10; type: in vivo; conditions: for RF: C. elegans IVR10, IC50 IVM alone / IC50 IVM with reversal agent; for effect of the agent alone on the development of C. elegans: verapamil at 8 μM, IVM-Agly at 10 ng/ml
Protocol: A gravid assay method, based on the development of eggs to gravid adults over a 96 hr incubation period, was used to determine the resistance with respect to ivermectin (IVM) in C. elegans. The eggs were collected through rinsing the C. elegans worms resistant to IVM (IVR10). Sixty eggs were incubated/well, in standard conditions for four days (96 hours) in order reach adulthood (gravid) in the presence of drugs as followed: ivermectin aglycone (IVM-Agly) alone at 10 ng/ml (11.4 nM); verapamil (VRP) alone at 8 μM; IVM alone: […]; IVM+VRP 8 μM: 0, 1, 2, 4, 6, 8, 10, 20 ng/ml IVM; IVM+IVM-Agly 10 ng/ml: 0, 1, 2, 4, 6, 8, 10, 20 ng/ml ([…]) IVM. Assays were performed in triplicates per condition treatment and the experiment was performed 3 times.

Mdr1ab−/− mice = test: In vivo toxicity test in Pgp-deficient mice; conditions: mouse, sc
Protocol: Wild-type and the Pgp knock-out mdr1ab^−/− mice with a FVB genetic background were obtained from Taconic (NY, USA). In rodents, there are two Pgps encoded by abc1a and abc1b genes and mdr1ab^−/− mice were deficient for the two gene products. Mice were housed at INRA's transgenic rodent facility at 22±2° C. under 12-hour light/dark cycles. Animals sampling was designed to reduce the influence of interfering parameters such as litter specificity (seven to nine different litters for a ten animals group). Mice received a standard chow diet recommended for the breeding and rearing of rodents (Harlan Teklad TRM Rat/Mouse Diet; Harlan Teklad, Gannat, France). Water and food were available ad libitum. In vivo studies were conducted in mice under European laws on the protection of animals and protocols are performed under procedure and principal for good clinical practice.
Toxicity of ivermectin and ivermectin aglycone is measured in Pgp-deficient mice. Mdr1ab^−/− mice are injected subcutaneously with increasing doses of ivermectin or ivermectin aglycone formulated in propylene glycol/[…] (60:40, v/v). Higher injected doses are 1.5 mg/kg (1.7 μmol/kg) for ivermectin and 16 mg/kg (27 μmol/kg) for ivermectin aglycone, respectively. Toxicity is evaluated during 24 h. […]

[7] = Table 2, read-out: EC50, concentration of half inhibitory effect, Murine Pgp

Compound: Cc1c2oc3c(C)ccc(C(=O)N[C@@H]4C(=O)N[C@H](C(C)C)C(=O)N5CCC[C@H]5C(=O)N(C)CC(=O)N(C)[C@@H](C(C)C)C(=O)O[C@@H]4C)c3nc-2c(C(=O)N[C@@H]2C(=O)N[C@H](C(C)C)C(=O)N3CCC[C@H]3C(=O)N(C)CC(=O)N(C)[C@@H](C(C)C)C(=O)O[C@@H]2C)c(N)c1=O [ActD, actinomycin D] (I: T[dV]P[Sar][NMeV] / II: T[dV]P[Sar][NMeV]; ester I:1-I:C, II:1-II:C; linker I:N-II:N via Actinocin(9to1))
DC-3F/ADX viability with actinomycin D alone ([1]; 1 μM actinomycin D): not altered | IC50 ([1]; DC-3F/ADX cells, MTT, read-out: IC50 of actinomycin D alone): 5 µM

EC50 [2]: 5.6 ± 1.5 nM
Compound: CO/N=C1\C[C@]2(C[C@@H]3C[C@@H](C/C=C(\C)C[C@@H](C)/C=C/C=C4\CO[C@@H]5[C@H](O)C(C)=C[C@@H](C(=O)O3)[C@]45O)O2)O[C@H](/C(C)=C/C(C)C)[C@H]1C [MOX, moxidectin]

Compound: CC[C@]1(O)C[C@@H]2CN(CCc3c([nH]c4ccccc34)[C@@](C(=O)OC)(c3cc4c(cc3OC)N(C)[C@H]3[C@@](O)(C(=O)OC)[C@H](OC(C)=O)[C@]5(CC)C=CCN6CC[C@]43[C@@H]65)C2)C1 [VBL, vinblastine]
viability of CEM/VBL cells in vinblastine alone [3]: fully viable | sensitivity of parental cells to VBL [4]: highly sensitive

Compound: CCC(C)C1OC2(CCC1C)CC1CC(CC=C(C)C(OC3CC(OC)C(O)C(C)O3)C(C)C=CC=C3COC4C(O)C(C)=CC(C(=O)O1)C34O)O2 (stereo not shown) [IVM Monosaccharide]
EC50 [2]: 122 nM | agonist strength at GABA receptors, in words [2]: weak agonist

Compound: ivermectin
Cmax: concentration to obtain maximum inhibitory effect (murine Pgp (mdr1a)): 5.0 µM | Emax: maximum effect compared to maximum effect obtained with 5 μM of valspodar (murine Pgp (mdr1a)): 88.0 % valspodar ® | EC50 (murine Pgp (mdr1a); [7]): 500 nM | EC50 [5]: 600 nM | EC50 ([2]; listed as IVM): 29.3 ± 3.4 nM | EC50 [2]: 29 nM | RF (IC50 for toxic drug alone/IC50 for toxic drug in the presence of compound) ([1]; DC-3F/ADX cells): 45 | toxicity of actinomycin D when combined with the compound ([1]; DC-3F/ADX cells): became toxic | IC50 of IVM alone ([6]; C. elegans IVR10, egg to gravid adult, 96 h): 6.8 ± 0.2 ng/mL | IC50 ([6]; C. elegans IVR10, egg to gravid adult, 96 h, read-out: IC50 of IVM alone): 7.8 ± 0.2 nM | concentration blocking the development of C. elegans IVR10 eggs ([6]; IVM alone): ~10 nM

Compound: CCC(C)C1OC2(CCC1C)CC1CC(CC=C(C)C(O)C(C)C=CC=C3COC4C(O)C(C)=CC(C(=O)O1)C34O)O2 (stereo not shown) [Ivermectin aglycone, 22,23-dihydroavermectin B1 aglycone]
Cmax: concentration to obtain maximum inhibitory effect (murine Pgp (mdr1a)): 10.0 µM | Emax: maximum effect compared to maximum effect obtained with 5 μM of valspodar (murine Pgp (mdr1a)): 80.0 % valspodar ® | Cmax: concentration to obtain maximum inhibitory effect (murine Pgp (mdr1a); listed as ivermectin aglycone): about 10 μM | EC50 (murine Pgp (mdr1a); Table 1, read-out: EC50: effective concentration for inhibiting 50% of transport of rhodamine 123 by murine Pgp): 1000 nM | EC50 (murine Pgp (mdr1a); [7]): 2500 nM | EC50 [5]: 500 nM | inhibitory potency for parasite HcPgpA relative to mammalian Pgp ([5]; ratio of EC50 murine Pgp / HcPgpA, 120 min): 5 times | EC50 [2]: 215 nM | agonist strength at GABA receptors, in words [2]: weak agonist | toxicity in words (Mdr1ab−/− mice): does not show any toxicity | RF (IC50 for toxic drug alone/IC50 for toxic drug in the presence of compound) ([1]; DC-3F/ADX cells): 62 | toxicity of actinomycin D when combined with the compound ([1]; DC-3F/ADX cells): became toxic | RF [6]: 1.5 | effect of the agent alone on the development of C. elegans [6]: had no effects

Compound: COc1ccc(CCN(C)CCCC(C#N)(c2ccc(OC)c(OC)c2)C(C)C)cc1OC (stereo not shown) [verapamil]
RF [6]: 2.1 | effect of the agent alone on the development of C. elegans [6]: had no effects
